Patent publication US20260242413A1, “ENDOTOXIN NE[…]” (AMFERIA AB, priority 2023, published 2026)
Where no end group is shown, it is not given here.

Test system: E. coli (CCUG 29300)
Experiment: Endotoxin binding of AMP functionalised crosslinked hydrogel particle dispersion, chromogenic LAL endotoxin assay
Type: cell-based
Conditions: E. coli 10^6 CFU/ml, 37° C., 1 hour, 3 hours and 24 hours, FIG. 2 and 3

Q: With “RRPRPRPRPWWWW-NH2 [RRP9W4N, PRELP derived amphiphilic antimicrobial peptide, free in PBS solution]” as the substance, how does the endotoxin neutralisation read?
A: The endotoxin neutralisation was “neutralised endotoxins in all measured durations of incubation”.
